This is an account of results in ChEMBL document CHEMBL5113465, “Design, synthesis and evaluation of alpha lipoic acid derivatives to treat multiple sclerosis-associated central neuropathic pain” (Bioorg Med Chem, 2022).

The nature of series [1]: Octanol/water partition coefficient, log P of the compound by HPLC analysis. In kind it is physicochemical.
The nature of series [2]: Stability of compound in pH 6.8 intestinal enzyme-free fluid assessed as decomposition measured within 20 mins by HPLC analysis. The note with it: buffer, pH 6.8, 20 min. In kind it is ADME.
A short description of series [3]: Aqueous solubility of compound. It counts as physicochemical.
A short description of series [4]: Stability of compound in pH 1.5 gastric enzyme-free fluid assessed as decomposition measured within 20 mins by HPLC analysis. It counts as ADME. The note with it: buffer, pH 1.5, 20 min.
The nature of series [5]: Half life in pH 1.5 gastric enzyme-free fluid assessed as parent compound remaining neutralized with 0.1 N triethylamine solution at 20 mins interval for 3 hrs by HPLC analysis. In kind it is ADME.
A short description of series [6]: Half life in pH 6.8 intestinal enzyme-free fluid assessed as parent compound remaining neutralized with 0.1 N triethylamine solution at 20 mins interval for 3 hrs by HPLC analysis. In kind it is ADME.
Series [7] is described as follows: Stability in mouse plasma at 1 to 500 ppm measured within 1 min by LC-MS analysis. The note with it: dose 1-500 ppm. It counts as ADME, cell-free.
Series [8] is described as follows: Apparent permeability in human Caco-2 cells measured after 15 mins by LC-MS analysis. In kind it is ADME, cell-based. For orientation: Caco-2 monolayers are a common model of the intestinal barrier.
Series [9] can be described thus: Half life in mouse plasma at 0.1 to 50 ppm by LC-MS analysis. In kind it is ADME, cell-free. The note with it: dose 0.1-50 ppm.
[10] abbreviates: aqueous medium, read-out: solubility.

As for `O=C(CCCC[C@@H]1CCSS1)OCCN1CCOCC1`, the logP in [1] turned out to be 2.64. For the same compound, the Drug degradation result in series [2] and in series [4] was “Active” throughout. In addition, the solubility in series [3] (setting [10]) was below 10 µM.

Regarding `O=C(CCCC[C@@H]1CCSS1)OC[C@H]1OC(O)[C@H](O)[C@@H](O)[C@@H]1O` (some centres undefined), the logP in [1] worked out at 0.94. For the same compound, in [3] (setting [10]), the solubility was below 2000 µM.

As to `CN1CCN(CCOC(=O)CCCC[C@@H]2CCSS2)CC1`, the half-life in [5] and in series [6] was above 2 h in each case.

Turning to `O=C(CCCC[C@@H]1CCSS1)OCCOCCOCCO`, the half-life in [5] and in series [6] was above 2 h throughout.

With `Cl.O=C(CCCC[C@@H]1CCSS1)OCCN1CCOCC1`, the Stability entry in series [7] is listed as “Unstable”. In addition, in series [3] (buffer), the solubility result was “Soluble”.

In the case of `Cc1oc(=O)oc1COC(=O)CCCC[C@@H]1CCSS1`, the half-life in series [5] and in [6] was above 2 h throughout. Moreover, the Papp at 0.25 h in [8] came out at 159 nm/s.

`O=C(CCCC[C@@H]1CCSS1)OCc1cc(=O)c(O)co1` returned a logP in series [1] of 2.03. For the same compound, the half-life in series [5] and in [6] was above 2 h each time. In addition, the solubility in series [3] (setting [10]) is below 10 µM.

Consider `O=C(CCCC[C@@H]1CCSS1)OC(CO)CO`, for which the half-life in series [5] and in series [6] was above 2 h each time.

Regarding `O=C(CCCC[C@@H]1CCSS1)O[C@H]1[C@H](O)[C@@H](CO)OC(O)[C@@H]1O` (some centres undefined), in series [1], the logP was determined as 0.31. For the same compound, the solubility in series [3] (setting [10]) is above 10000 µM. Further, the half-life in series [9] is 1.5 h.

In general, logP refers to a log measure of how a compound divides between an organic and an aqueous phase. The low end stands for a more hydrophilic compound, the high end for a more lipophilic compound. Usually solubility stands for the dissolved amount per volume that the medium holds. As usually defined, the half-life is the time needed for the level to fall by half in the phase considered. The term Papp denotes the rate of passage across a membrane or cell layer, normalised by area and donor concentration.
